Patent US20250051275A1, “PYRROLE DERIVATIVE OR PHARMACEUTICALLY OR SITOLOGICALLY ACCEPTABLE SALTS THEREOF, AND COMPOSITION FOR PREVENTION, AMELIORATION OR TREATMENT OF GASTROINTESTINAL DISORDERS COMPRISING SAME AS ACTIVE INGREDIENT” (HANA PHARM CO., LTD., priority 2021, published 2025)
Like-named read-outs stand apart in the source and are kept apart here.

Tests used:
pH of gastric juice = test: Pharmacodynamic profile (pH of gastric juice) in beagles after histamine; type: in vivo, beagle dogs; conditions: beagle
Procedure: (§1) A total of 18 male beagle dogs (Marshall Beagle, Beijing) with an average weight of 9 to 11 kg were obtained, acclimatized, and distributed into a total of 6 groups, 3 dogs per test group. During the entire experiment, all beagle dogs were supplied with standardized solid food and water. The breeding room was kept under controlled and monitored conditions, while maintaining a temperature of 18° C. to 26° C., a humidity of 40% to 70%, and a light-dark cycle of 12 hours-12 hours.
(§2) The test group consisted of beagle dogs that were orally administered the vehicle as the vehicle group, beagle dogs that were orally administered control drug 1 (vonoprazan) as the comparison group, and administration group was beagle dogs orally administered with Example 7.
To measure the neutralizing power of gastric acid for drug efficacy evaluation, each dose of the compound was administered to each group. Then, histamine dihydrochloride at 0.03 mg/kg was administered subcutaneously 1, 3, 6, 24, and 48 hours after compound administration. The pH of the gastric juice was measured 0, 2.5, 4.5, 7.5, 25.5, and 49.5 hours after compound administration.

[1] = system: human gastric cancer cells (AGS Cells); test: MTS assay, inhibition of proliferation of human gastric cancer cells (AGS Cells); type: cell-based; conditions: Homo sapiens, 48 hours
Procedure: To examine the effect of inhibiting the proliferation of the compounds indicated in the examples of the present invention on human gastric cancer cells (AGS Cells), MTS Assay experiments were in vitro performed. AGS cells were cultured in a 5% CO2 incubator at 37° C. by using RPMI 1640 medium containing 1% penicillin-streptomycin and 10% fetal bovine serum. The cells in culture were separated with using 0.25% Trypsin-0.02% EDTA every 3 to 4 days and subcultured.
For the experiment, the cultured cells were treated with 0.25% Trypsin-0.02% EDTA solution, the suspended cells were centrifuged at 1,200 rpm for 5 minutes, the supernatant was discarded, a culture medium was added thereto, and a cell suspension was made with the culture medium. Using a hemocytometer, 10,000 cells per well were dispensed into 96-well plates and cultured. After 24 hours, when the cells attached to the plate, the culture medium was discarded, and the cells were treated with new culture media prepared by concentration (test concentrations: 500 μm, 250 μm, 125 μm, 63 μm, 31 μm, 16 μm, 8 μm, 4 μm, and 2 μm) and cultured in a CO2 incubator for 48 hours. After treating with an MTS solution, the cells were incubated in a CO2 incubator for 1 hour, and the absorbance was measured at 490 nm by using a microplate reader device. The cell proliferation inhibition rate was expressed as IC50, which is 50% inhibition of cell proliferation, using GraphPad Prism 5.
In Table 2 below, the IC50 value is indicated as “+++” for 0 to 50 μM, “++” for 51 to 100 μM, and “+” for 101 to 400 μM.

[2] = Pharmacokinetic profile in beagles, single oral dose; type: in vivo, beagle dogs; conditions: male, dog, plasma, beagle, mean n=3
Procedure: as §1, §2
Blood samples were obtained from peripheral veins at 30 minutes, 1 hour, 2.5 hours, 4.5 hours, 7.5 hours, 25.5 hours, and 49.5 hours after drug administration, respectively. Blood samples were centrifuged (2 to […], 3,200 g, 10 minutes) to obtain plasma. The amount of the administered compound into the plasma samples was quantified by using LC-MS/MS. Pharmacokinetic parameters were obtained by using a non-compartmental model in Phoenix WinNonlin 6.3 software. ‘AUC0-last’ indicates the area under the time curve, ‘Cmax’ indicates the highest plasma concentration, ‘ Tmax’ indicates the time to reach the highest plasma concentration, and ‘T1/2’ indicates the half-life.

[3] = Storage stability (related substance identification test); type: physicochemical; conditions: for storage stability: stored at −2 to 8° C., in % (unit assumed)
Excerpt: An attempt was made to evaluate the storage stability over time of the compound of Example 7 of the present invention and the compound of Comparative Example 1 (which is the deuterium-unsubstituted form of the compound of Example 7) depending on the presence of deuterium substitution.

[2H]C([2H])([2H])NCc1cc(-c2ccccc2F)n(S(=O)(=O)c2ccc(F)cc2)c1 [Example 7, N-((5-(2-fluorophenyl)-1-((4-fluorophenyl)sulfonyl)-1H-pyrrol-3-yl)methyl)methan-d3-amine]
Average pH of gastric juice (pH of gastric juice; oral 0.1 mg/kg, 0 h): 6.8 | Average pH of gastric juice (pH of gastric juice; oral 0.1 mg/kg, 2.5 h): 3.3 | Average pH of gastric juice (pH of gastric juice; oral 0.1 mg/kg, 4.5 h): 6.5 | Average pH of gastric juice (pH of gastric juice; oral 0.1 mg/kg, 7.5 h): 6.0 | Average pH of gastric juice (pH of gastric juice; oral 0.1 mg/kg, 25.5 h): 2.7 | Average pH of gastric juice (pH of gastric juice; oral 0.1 mg/kg, 49.5 h): 2.4 | Average pH of gastric juice (pH of gastric juice; oral 0.3 mg/kg, 0 h): 7.2 | Average pH of gastric juice (pH of gastric juice; oral 0.3 mg/kg, 2.5 h): 6.7 | Average pH of gastric juice (pH of gastric juice; oral 0.3 mg/kg, 4.5 h): 7.0 | Average pH of gastric juice (pH of gastric juice; oral 0.3 mg/kg, 7.5 h): 6.5 | Average pH of gastric juice (pH of gastric juice; oral 0.3 mg/kg, 25.5 h): 2.3 | Average pH of gastric juice (pH of gastric juice; oral 0.3 mg/kg, 49.5 h): 2.8 | Average pH of gastric juice (pH of gastric juice; oral 1 mg/kg, 0 h): 5.7 | Average pH of gastric juice (pH of gastric juice; oral 1 mg/kg, 2.5 h): 7.2 | Average pH of gastric juice (pH of gastric juice; oral 1 mg/kg, 4.5 h): 6.7 | Average pH of gastric juice (pH of gastric juice; oral 1 mg/kg, 7.5 h): 6.2 | Average pH of gastric juice (pH of gastric juice; oral 1 mg/kg, 25.5 h): 3.0 | Average pH of gastric juice (pH of gastric juice; oral 1 mg/kg, 49.5 h): 2.3 | Average pH of gastric juice (pH of gastric juice; oral 3 mg/kg, 0 h): 6.0 | Average pH of gastric juice (pH of gastric juice; oral 3 mg/kg, 2.5 h): 7.3 | Average pH of gastric juice (pH of gastric juice; oral 3 mg/kg, 4.5 h): 7.0 | Average pH of gastric juice (pH of gastric juice; oral 3 mg/kg, 7.5 h): 6.3 | Average pH of gastric juice (pH of gastric juice; oral 3 mg/kg, 25.5 h): 6.2 | Average pH of gastric juice (pH of gastric juice; oral 3 mg/kg, 49.5 h): 3.0 | IC50 ([1]; read-out: Proliferation inhibitory effect of gastric cancer cells (IC50)): 35.3 µM | IC50 ([1]; read-out: Proliferation inhibitory effect of gastric cancer cells (IC50, μM), class symbol): < 50 µM | AUC(0-t) ([2]; oral single dose 0.1 mg/kg): 99.4 ng·h/mL | Cmax ([2]; oral single dose 0.1 mg/kg): 32.3 ng/mL | Tmax ([2]; oral single dose 0.1 mg/kg): 0.833 h | half-life ([2]; oral single dose 0.1 mg/kg): 1.67 h | AUC(0-t) ([2]; oral single dose 0.3 mg/kg): 808 ng·h/mL | Cmax ([2]; oral single dose 0.3 mg/kg): 165 ng/mL | Tmax ([2]; oral single dose 0.3 mg/kg): 1 h | half-life ([2]; oral single dose 0.3 mg/kg): 2.93 h | AUC(0-t) ([2]; oral single dose 1 mg/kg): 2890 ng·h/mL | Cmax ([2]; oral single dose 1 mg/kg): 397 ng/mL | Tmax ([2]; oral single dose 1 mg/kg): 1 h | half-life ([2]; oral single dose 1 mg/kg): 3.03 h | AUC(0-t) ([2]; oral single dose 3 mg/kg): 19200 ng·h/mL | Cmax ([2]; oral single dose 3 mg/kg): 1430 ng/mL | Tmax ([2]; oral single dose 3 mg/kg): 2.17 h | half-life ([2]; oral single dose 3 mg/kg): 4.29 h | storage stability, Results ([3]; stored at −2 to 8° C. for 3 months): Stable | storage stability ([3]; 1st week): 98.33 | storage stability ([3]; 2nd week): 98.11 | storage stability ([3]; 3 months): 98.9 | storage stability ([3]; 3rd week): 98.11 | storage stability ([3]; 4th week): 98.20 | storage stability ([3]; Initial): 98.38
